Source: patent publication US8680159B2, “Bradykinin 1 receptor modulating compounds” (Gruenenthal GmbH, priority 2010, dated 2014)

target: T1, human B1R receptor (CHO K1 cells stably transfected with the human B1R gene) (Homo sapiens, UniProt P46663); assay: Functional study on the bradykinin receptor 1 (B1R), Ca2+ fluorescence (Fluo-4) FLIPR/Novostar assay, hB1R cells; type: cell-based; details: CHO-K1, read-out: % Inhibition (h-B1R) at 10 μM
T1 construct: expressed in transfected cells; host or cells: CHO K1 cells (Chinese hamster ovary), stably transfected
T1 sequence (P46663 1-353): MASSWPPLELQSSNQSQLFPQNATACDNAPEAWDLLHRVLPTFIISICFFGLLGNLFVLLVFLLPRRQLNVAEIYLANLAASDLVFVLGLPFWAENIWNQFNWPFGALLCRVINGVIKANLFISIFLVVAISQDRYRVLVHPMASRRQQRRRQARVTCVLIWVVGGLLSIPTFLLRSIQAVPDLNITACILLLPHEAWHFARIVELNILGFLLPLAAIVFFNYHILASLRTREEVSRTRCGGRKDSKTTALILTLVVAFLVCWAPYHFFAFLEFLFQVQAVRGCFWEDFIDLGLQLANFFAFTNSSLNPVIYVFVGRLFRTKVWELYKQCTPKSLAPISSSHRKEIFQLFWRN
Experimental: The agonistic or antagonistic action of substances can be quantified on the bradykinin receptor 1 (B1R) of the species human and rat using ectopically expressing cell lines (CHO K1 cells) and with the aid of a Ca^2+-sensitive dye (Fluo-4) using a fluorescent imaging plate reader (FLIPR). The indication in % activation is based on the Ca^2+ signal after addition of Lys-Des-Arg^9-bradykinin (0.5 nM) or Des-Arg^9-bradykinin (100 nM). Antagonists lead to suppression of the Ca^2+ influx after the addition of the agonist. % Inhibition compared with the maximum achievable inhibition is indicated.
The agonistic or antagonistic action of substances can be determined on the bradykinin receptor 1 (B1R) of the species human and rat using the following assay. According to this assay, the increase in intracellular Ca^2+ following administration of a B1R agonist is quantified with the aid of a Ca^2+-sensitive dye (Fluo-4 type, Molecular Probes Europe BV, Leiden, Netherlands) using a Fluorescent Imaging Plate Reader (FLIPR, Molecular Devices, Sunnyvale, USA) and/or using a Novostar (BMG Labtech GmbH, Offenburg, Germany).
Chinese hamster ovary cells (CHO K1 cells) which have been stably transfected with the human B1R gene (hB1R cells) or with the B1R gene of the rat (rB1R cells) are used. For functional studies, the cells are plated out on black 96-well plates having a clear base (BD Biosciences, Heidelberg, Germany or Greiner, Frickenhausen, Germany) in a density of 20,000-35,000 cells/well. The cells are left overnight at 37° C. and with 5% CO2 in culture medium (hB1R cells: Nutrient Mixture Ham's F12, Gibco Invitrogen GmbH, Karlsruhe, Germany or DMEM, Sigma-Aldrich, Taufkirchen, Germany; rB1R cells: D-MEM/F12, Gibco Invitrogen GmbH, Karlsruhe, Germany), with 10 vol. % FBS (fetal bovine serum, Gibco Invitrogen GmbH, Karlsruhe, Germany or PAN Biotech GmbH, Aidenbach, Germany). On the following day, the cells are loaded for 60 minutes at 37° C. with 2.13 μM Fluo-4 (Molecular Probes Europe BV, Leiden, Netherlands) in HBSS buffer (Hank's buffered saline solution, Gibco Invitrogen GmbH, Karlsruhe, Germany) […] (Sigma-Aldrich, Taufkirchen, Germany) and 10 mM HEPES (Sigma-Aldrich, Taufkirchen, Germany). The plates are then washed twice with HBSS buffer, and HBSS buffer additionally containing 0.1% BSA (bovine serum albumin; Sigma-Aldrich, Taufkirchen, Germany), 5.6 mM glucose and 0.05% gelatin (Merck KGaA, Darmstadt, Germany) is added to the plates. After incubation for a further 20 minutes at room temperature, the plates are inserted into the FLIPR or Novostar for Ca^2+ measurement. Alternatively, washing is carried out with buffer A (15 mM HEPES, 80 mM NaCl, 5 mM KCl, 1.2 mM CaCl2, 0.7 mM MgSO4, 2 g/l glucose, 2.5 mM probenecid) followed by loading with buffer A with added 2.5 μM Fluo-4 and 0.025% Pluronic F127 (Sigma-Aldrich, Taufkirchen, Germany). The cells are then washed twice with buffer A and incubated for 30 minutes at room temperature with buffer A additionally containing 0.05% BSA and 0.05% gelatin and are then inserted into the FLIPR or Novostar for Ca^2+ measurement. The Ca^2+-dependent fluorescence is measured before and after the addition of substances (λex=488 nm, λem=540 nm). Quantification is carried out by measuring the highest fluorescence intensity (FC, fluorescence counts) over time.
The FLIPR protocol consists of 2 substance additions, which are pipetted in the FLIPR. In the case of measurements using the Novostar, only the second substance addition is pipetted in the device. Both devices measure the fluorescence intensity over time. Test substances (10 μM) are first pipetted onto the cells and the intracellular Ca^2+ increase is compared with the control (hB1R: Lys-Des-Arg^9-bradykinin>=50 nM; rB1R: Des-Arg^9-bradykinin>=1 μM). This gives the % activation, based on the Ca^2+ signal after addition of Lys-Des-Arg^9-bradykinin (>=50 nM) or Des-Arg^9-bradykinin (>=1 μM). […]

Q: How did the inhibition at 10 µM turn out when `CN(C(=O)c1ccc2c(c1)C(NC(=O)C(C)(C)c1ccccc1Cl)CC2(C)C)C1CCN(c2ccncc2)CC1` (stereo not shown) [CC_H-95, 3-[[2-(2-Chlorophenyl)-2-methyl-propanoyl]amino]-N,1,1-trimethyl-N-(1-pyridin-4-yl-piperidin-4-yl)-2,3-dihydro-indene-5-carboxylic acid amide] was run?
A: 100%

Q: `Cc1cc(N2CCC(N(C)C(=O)c3ccc4c(c3)C(NC(=O)c3cccc(Cl)c3Cl)CC4)CC2)cc(C)n1` (stereo not shown) [CC_H-96, 3-[(2,3-Dichloro-benzoyl)amino]-N-[1-(2,6-dimethyl-pyridin-4-yl)-piperidin-4-yl]-N-methyl-2,3-dihydro-1H-indene-5-carboxylic acid amide] was tested. Which inhibition at 10 µM did it give?
A: 100%

Q: With `CN(C(=O)c1ccc2c(c1)C(NC(=O)C(C)(C)c1ccccc1Cl)CCO2)C1CCN(c2ccncc2)CC1` (stereo not shown) [CC_H-97, 4-[[2-(2-Chlorophenyl)-2-methyl-propanoyl]amino]-N-methyl-N-(1-pyridin-4-yl-piperidin-4-yl)-3,4-dihydro-2H-chromene-6-carboxylic acid amide] as the compound, how does the inhibition at 10 µM read?
A: 92%

Q: `CN(C(=O)c1ccc2c(c1)C(NC(=O)C(C)(C)c1ccccc1Cl)CC2)C1CCN(c2ccc3cnccc3c2)CC1` (stereo not shown) [CC_H-98, 3-[[2-(2-Chlorophenyl)-2-methyl-propanoyl]amino]-N-(1-isoquinolin-6-yl-piperidin-4-yl)-N-methyl-2,3-dihydro-1H-indene-5-carboxylic acid amide] was tested. Which inhibition at 10 µM did it give?
A: 92%

Q: With `Cc1cc(N2CCC(N(C)C(=O)c3ccc4c(c3)C(NC(=O)c3ccccc3Cl)CC4)CC2)cc(C)n1` (stereo not shown) [CC_H-99, 3-[(2-Chloro-benzoyl)amino]-N-[1-(2,6-dimethyl-pyridin-4-yl)-piperidin-4-yl]-N-methyl-2,3-dihydro-1H-indene-5-carboxylic acid amide] as the compound, how does the inhibition at 10 µM read?
A: 100%

Q: With `CN(C(=O)c1ccc2c(c1)CCC2NC(=O)C(C)(C)c1ccccc1Cl)C1CCN(c2ccncc2)CC1` (stereo not shown) [CC_H-100, 1-[[2-(2-Chlorophenyl)-2-methyl-propanoyl]amino]-N-methyl-N-(1-pyridin-4-yl-piperidin-4-yl)-2,3-dihydro-1H-indene-5-carboxylic acid amide] as the compound, how does the inhibition at 10 µM read?
A: 77%

Q: For `O=C(CCC1CCCC1)NC1CCc2ccc(C(=O)NCCC3CCN(c4ccncc4)CC3)cc21` (stereo not shown) [CC_H-101, 3-(3-Cyclopentyl-propanoylamino)-N-[2-(1-pyridin-4-yl-piperidin-4-yl)-ethyl]-2,3-dihydro-1H-indene-5-carboxylic acid amide], which inhibition at 10 µM is on record?
A: 100%

Q: For `CN(C(=O)c1ccc2c(c1)C(NC(=O)C(C)(C)c1ccccc1Cl)CCC2)C1CCN(c2ccncc2)CC1` (stereo not shown) [CC_H-102, 8-[[2-(2-Chlorophenyl)-2-methyl-propanoyl]amino]-N-methyl-N-(1-pyridin-4-yl-piperidin-4-yl)-5,6,7,8-tetrahydro-naphthalene-2-carboxylic acid amide], which inhibition at 10 µM is on record?
A: 99%

Q: With `CC(C)(C(=O)NC1CCc2ccc(C(=O)NCCC3CCN(c4ccncc4)CC3)cc21)c1ccccc1Cl` (stereo not shown) [CC_H-103, 3-[[2-(2-Chlorophenyl)-2-methyl-propanoyl]amino]-N-[2-(1-pyridin-4-yl-piperidin-4-yl)-ethyl]-2,3-dihydro-1H-indene-5-carboxylic acid amide] as the compound, how does the inhibition at 10 µM read?
A: 89%

Q: Which inhibition at 10 µM does the source give for `CN(C(=O)NC1CCc2ccc(C(=O)N(C)C3CCN(c4ccc5cnccc5c4)CC3)cc21)c1ccccc1Cl` (stereo not shown) [CC_H-104, 3-[[(2-Chlorophenyl)-methyl-carbamoyl]amino]-N-(1-isoquinolin-6-yl-piperidin-4-yl)-N-methyl-2,3-dihydro-1H-indene-5-carboxylic acid amide] here?
A: 100%

Q: How did the inhibition at 10 µM turn out when `Cc1cccc(C)c1C(=O)NC1CCc2ccc(C(=O)NCCC3CCN(c4ccncc4)CC3)cc21` (stereo not shown) [CC_H-105, 3-[(2,6-Dimethyl-benzoyl)amino]-N-[2-(1-pyridin-4-yl-piperidin-4-yl)-ethyl]-2,3-dihydro-1H-indene-5-carboxylic acid amide] was run?
A: 90%

Q: For `CN(C(=O)c1ccc2c(c1)C(N(C)C(=O)c1ccccc1Cl)CC2)C1CCN(c2ccncc2)CC1` (stereo not shown) [CC_H-106, 3-[(2-Chloro-benzoyl)-methyl-amino]-N-methyl-N-(1-pyridin-4-yl-piperidin-4-yl)-2,3-dihydro-1H-indene-5-carboxylic acid amide], which inhibition at 10 µM is on record?
A: 100%

Q: With `Cc1cc(N2CCC(N(C)C(=O)c3ccc4c(c3)C(NC(=O)c3c(Cl)cccc3C(F)(F)F)CC4)CC2)cc(C)n1` (stereo not shown) [CC_H-107, 3-[[2-Chloro-6-(trifluoromethyl)-benzoyl]amino]-N-[1-(2,6-dimethyl-pyridin-4-yl)-piperidin-4-yl]-N-methyl-2,3-dihydro-1H-indene-5-carboxylic acid amide] as the compound, how does the inhibition at 10 µM read?
A: 97%

Q: How did the inhibition at 10 µM turn out when `Cc1cc(N2CCC(N(C)C(=O)c3ccc4c(c3)C(N(C)C(=O)c3c(Cl)cccc3C(F)(F)F)CC4)CC2)cc(C)n1` (stereo not shown) [CC_H-108, 3-[[2-Chloro-6-(trifluoromethyl)-benzoyl]-methyl-amino]-N-[1-(2,6-dimethyl-pyridin-4-yl)-piperidin-4-yl]-N-methyl-2,3-dihydro-1H-indene-5-carboxylic acid amide] was run?
A: 91%

Q: How did the inhibition at 10 µM turn out when `Cc1cc(N2CCC(N(C)C(=O)c3ccc4c(c3)C(NC(=O)c3sccc3Cl)CC4)CC2)cc(C)n1` (stereo not shown) [CC_H-109, 3-Chloro-N-[6-[[1-(2,6-dimethyl-pyridin-4-yl)-piperidin-4-yl]-methyl-carbamoyl]-2,3-dihydro-1H-inden-1-yl]-thiophene-2-carboxylic acid amide] was run?
A: 100%

Q: How did the inhibition at 10 µM turn out when `Cc1cc(N2CCC(N(C)C(=O)c3ccc4c(c3)C(NS(=O)(=O)c3c(Cl)cccc3C(F)(F)F)CC4)CC2)cc(C)n1` (stereo not shown) [CC_H-111, 3-[[[2-Chloro-6-(trifluoromethyl)-phenyl]sulfonyl]amino]-N-[1-(2,6-dimethyl-pyridin-4-yl)-piperidin-4-yl]-N-methyl-2,3-dihydro-1H-indene-5-carboxylic acid amide] was run?
A: 100%

Q: For `Cc1cc(N2CCC(N(C)C(=O)c3ccc4c(c3)C(NC(=O)c3cnccc3C(F)(F)F)CC4)CC2)cc(C)n1` (stereo not shown) [CC_H-112, N-[6-[[1-(2,6-Dimethyl-pyridin-4-yl)-piperidin-4-yl]-methyl-carbamoyl]-2,3-dihydro-1H-inden-1-yl]-4-(trifluoromethyl)-pyridine-3-carboxylic acid amide], which inhibition at 10 µM is on record?
A: 100%

Q: How did the inhibition at 10 µM turn out when `Cc1cc(N2CCC(N(C)C(=O)c3ccc4c(c3)C(NC(=O)c3c(C)cccc3C)CC4)CC2)cc(C)n1` (stereo not shown) [CC_H-115, 3-[(2,6-Dimethyl-benzoyl)amino]-N-[1-(2,6-dimethyl-pyridin-4-yl)-piperidin-4-yl]-N-methyl-2,3-dihydro-1H-indene-5-carboxylic acid amide] was run?
A: 99%

Q: Which inhibition at 10 µM does the source give for `O=C(NCCC1CCN(c2ccncc2)CC1)c1ccc2c(c1)C(NC(=O)C1CCCCC1)CC2` (stereo not shown) [CC_H-116, 3-(Cyclohexanecarbonylamino)-N-[2-(1-pyridin-4-yl-piperidin-4-yl)-ethyl]-2,3-dihydro-1H-indene-5-carboxylic acid amide] here?
A: 92%
